16 compounds from PubChem BioAssay (NCI) can be followed below.

SMILES strings stand for the structures.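 The compound was tested at five concentrations on cells cultured in 96-well plates, with a 48-hour exposure period. GI50: concentration for 50% inhibition of growth. TGI: total growth inhibition.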 A value given as a limit tells only on which side of the number the result lay.

Test systems include OVCAR-3 ovarian; IGROV1 ovarian; U251 CNS; MOLT-4 leukemia; EKVX NSCLC; CCRF-CEM leukemia; MALME-3M melanoma; ACHN renal; M14 melanoma; HT29 colon.
Assay in all cases: DTP human tumour cell line panel, 48 h

The term GI50 denotes the concentration at which growth is held to half of that of the control. The TGI is the concentration at which net growth stops. Read a low TGI as greater sensitivity of the cells.

In the case of `COc1ccc2c(c1)c(-c1nc(-c3cn(C)c4ncccc34)cs1)cn2CCCN1CCCCC1`, the GI50 in the assay with OVCAR-3 ovarian was 1.59 µM; in the assay on IGROV1 ovarian, 1.74 µM; in the assay on U251 CNS, 1.81 µM; in the assay on MOLT-4 leukemia it was 1.71 µM; with EKVX NSCLC, 1.67 µM; in the assay with CCRF-CEM leukemia it was 2.05 µM. For the same compound, the results for the GI50 with MALME-3M melanoma, in the assay with ACHN renal and with M14 melanoma were 1.64 µM, 1.69 µM and 1.65 µM, respectively. The TGI was found to be 3.02 µM in the assay on OVCAR-3 ovarian; 3.46 µM in the assay with IGROV1 ovarian; 3.23 µM with U251 CNS; 3.36 µM with MOLT-4 leukemia; 3.17 µM in the assay on EKVX NSCLC; 4.04 µM in the assay on CCRF-CEM leukemia. The figures for the total growth inhibition concentration (TGI) in the assay on MALME-3M melanoma, in the assay with ACHN renal and with M14 melanoma were 3.25 µM, 3.06 µM and 3.11 µM, respectively.
For the compound `O=C1/C(=C/c2ccc(Cl)cc2Cl)N=C(c2ccccc2)N1Cc1ccco1`, the GI50 with OVCAR-3 ovarian is 22.6 µM; with IGROV1 ovarian, 18.6 µM; in the assay with U251 CNS, 20.5 µM; in the assay on MOLT-4 leukemia, 25.8 µM; in the assay with EKVX NSCLC, 27.3 µM; in the assay on CCRF-CEM leukemia, 3.58 µM. For the same compound, the GI50 is 21.2 µM in the assay with MALME-3M melanoma, 11.8 µM in the assay with ACHN renal and 29.1 µM in the assay on M14 melanoma. Further, the concentration for total growth inhibition (TGI) in the assay with OVCAR-3 ovarian is 45.5 µM; with IGROV1 ovarian it was 51 µM; with U251 CNS it was 40.5 µM; with MOLT-4 leukemia, more than 100 µM; in the assay with EKVX NSCLC, 75 µM; with CCRF-CEM leukemia, 7.6 µM. The values for the TGI in the assay on MALME-3M melanoma, in the assay with ACHN renal and with M14 melanoma were 52.8 µM, 28 µM and more than 100 µM, respectively.
In the case of `COc1ccc(/C(=C2\O[C@@H]([C@H]3COC(C)(C)O3)[C@H]3OC(C)(C)O[C@@H]23)c2cc(OC)c(OC)c(OC)c2)cc1O`, the GI50 was 2.38 µM in the assay on OVCAR-3 ovarian; 33.2 µM with IGROV1 ovarian; 3.84 µM with U251 CNS; 6.93 µM with MOLT-4 leukemia; 55.7 µM in the assay on EKVX NSCLC; 3.75 µM in the assay on CCRF-CEM leukemia. In addition, the GI50 was 5.46 µM with MALME-3M melanoma, 9.31 µM in the assay with ACHN renal and 2.4 µM in the assay with M14 melanoma. In addition, the TGI in the assay on OVCAR-3 ovarian is 5.34 µM; in the assay with IGROV1 ovarian, more than 100 µM; in the assay with U251 CNS, 48.2 µM; in the assay on MOLT-4 leukemia it was more than 100 µM; in the assay on EKVX NSCLC, more than 100 µM; in the assay on CCRF-CEM leukemia it was more than 100 µM. Also, the TGI is more than 100 µM in the assay on MALME-3M melanoma, more than 100 µM in the assay with ACHN renal and 5.9 µM with M14 melanoma.
Consider `N#CC(C(=N/O)/C(=N/O)C(C#N)c1ccc(Cl)cc1)c1ccc(Cl)cc1` (stereo not given), for which the TGI with OVCAR-3 ovarian, in the assay on IGROV1 ovarian, in the assay with HT29 colon, in the assay with U251 CNS, with EKVX NSCLC and in the assay with MALME-3M melanoma was more than 100 µM in each case. In addition, the TGI with ACHN renal and with M14 melanoma was more than 100 µM each time.
In the case of `Cc1nn(CN2CCN(C)CC2)c(=S)n1/N=C/c1cccc2ccccc12`, the GI50 with OVCAR-3 ovarian was 18 µM; in the assay on IGROV1 ovarian, 19.4 µM; in the assay on MOLT-4 leukemia it was 19.1 µM; with EKVX NSCLC it was 31.8 µM; in the assay on CCRF-CEM leukemia, 23.4 µM; in the assay with ACHN renal, 20.1 µM. Further, the GI50 in the assay with M14 melanoma was 18.6 µM. Further, the total growth inhibition concentration (TGI) with OVCAR-3 ovarian was 36 µM; in the assay on IGROV1 ovarian it was 55.1 µM; with MOLT-4 leukemia it was 41.5 µM; in the assay with EKVX NSCLC it was more than 100 µM; with CCRF-CEM leukemia it was 55.3 µM; in the assay on ACHN renal, 38.4 µM. Besides, the total growth inhibition concentration (TGI) in the assay on M14 melanoma was 39.3 µM.
`COC(=O)C(/C(=N/NC(N)=O)C(=O)Nc1ccc(C)cc1)c1nc2ccc([N+](=O)[O-])cc2[nH]c1=O` (stereo not given): the TGI in the assay with OVCAR-3 ovarian, in the assay on IGROV1 ovarian, with HT29 colon, with U251 CNS, in the assay on MOLT-4 leukemia and in the assay with EKVX NSCLC was more than 100 µM each time. Further, the total growth inhibition concentration (TGI) in the assay on MALME-3M melanoma and in the assay with M14 melanoma was more than 100 µM throughout.
For `Cc1c(C(=O)N/N=C/c2ccc(Cl)cc2)nnn1-c1ccnc2c(C(F)(F)F)cccc12`, the GI50 in the assay on OVCAR-3 ovarian is 12 µM; with IGROV1 ovarian, 9.06 µM; with MOLT-4 leukemia, 6.39 µM; in the assay on EKVX NSCLC, 25.3 µM; with CCRF-CEM leukemia, 14.8 µM; with MALME-3M melanoma it was 1.53 µM. For the same compound, the GI50 in the assay on ACHN renal was 2.02 µM; in the assay on M14 melanoma, 4.45 µM. Further, the TGI is 26.4 µM with OVCAR-3 ovarian; 37 µM in the assay with IGROV1 ovarian; 35.3 µM in the assay with MOLT-4 leukemia; more than 100 µM in the assay with EKVX NSCLC; more than 100 µM in the assay on CCRF-CEM leukemia; 4.4 µM with MALME-3M melanoma. Further, the TGI with ACHN renal was found to be 3.95 µM; with M14 melanoma, 18.9 µM.
With `CSc1cc(N=Nc2nc3ccccc3s2)c2ccccc2c1O`, the GI50 in the assay on OVCAR-3 ovarian is 7.89 µM; in the assay on IGROV1 ovarian, 7.64 µM; in the assay on U251 CNS, 9.03 µM; with EKVX NSCLC, 7.2 µM; in the assay with ACHN renal, 6.57 µM; in the assay with M14 melanoma, 9.55 µM. The concentration for total growth inhibition (TGI) in the assay on OVCAR-3 ovarian is 19.3 µM; in the assay with IGROV1 ovarian, 24.3 µM; in the assay with U251 CNS it was 19.4 µM; with EKVX NSCLC, 16.4 µM; in the assay on ACHN renal, 13.1 µM; with M14 melanoma, 21.6 µM.
With `COc1ccccc1C1C(C(=O)Nc2ccccc2)=C(C)NC(C)=C1C(=O)Nc1ccccc1`, the concentration for total growth inhibition (TGI) is more than 100 µM in the assay on OVCAR-3 ovarian; more than 100 µM in the assay with IGROV1 ovarian; more than 100 µM in the assay with HT29 colon; more than 100 µM in the assay on U251 CNS; 56.8 µM with MOLT-4 leukemia; more than 100 µM with EKVX NSCLC. The TGI in the assay on MALME-3M melanoma, with ACHN renal and in the assay with M14 melanoma was more than 100 µM in each case.
For the compound `O=C1NNC=Nc2ccc(cc2)S(=O)(=O)c2ccc(cc2)N=CNNC1=O`, the total growth inhibition concentration (TGI) in the assay on OVCAR-3 ovarian, in the assay on IGROV1 ovarian, in the assay on HT29 colon, in the assay on U251 CNS, with MOLT-4 leukemia and with EKVX NSCLC was more than 100 µM throughout. For the same compound, the TGI in the assay with ACHN renal and in the assay on M14 melanoma was more than 100 µM each time.
Regarding `Cn1cc(-c2cnc3ccc(NC(=O)Nc4ccc(F)c(Br)c4)cc3n2)cn1`, the GI50 in the assay on OVCAR-3 ovarian was 2 µM; with IGROV1 ovarian, 1.6 µM; with U251 CNS it was 1.76 µM; in the assay on EKVX NSCLC it was 2.55 µM; with CCRF-CEM leukemia it was 2.06 µM; in the assay with MALME-3M melanoma, 1.56 µM. For the same compound, the GI50 in the assay on ACHN renal is 1.81 µM; with M14 melanoma, 1.57 µM. The TGI was found to be 5.77 µM in the assay on OVCAR-3 ovarian; 3.49 µM in the assay with IGROV1 ovarian; 3.88 µM in the assay with U251 CNS; 7.96 µM in the assay on EKVX NSCLC; 6.21 µM in the assay on CCRF-CEM leukemia; 3.55 µM in the assay with MALME-3M melanoma. In addition, the TGI in the assay on ACHN renal was determined as 4.31 µM; in the assay on M14 melanoma, 3.14 µM.
Take `N#CSCC1CC(O)(c2ccccc2)C(c2ccccc2)C(c2ccc(Cl)cc2)O1` (stereo not given): the GI50 is 0.782 µM with OVCAR-3 ovarian; 2 µM in the assay on IGROV1 ovarian; 1.02 µM with HT29 colon; 1.58 µM with U251 CNS; 1.52 µM in the assay on MALME-3M melanoma; 1.6 µM in the assay with ACHN renal. Also, in the assay on M14 melanoma, the GI50 was 1.53 µM. Further, the TGI in the assay with OVCAR-3 ovarian is 2.29 µM; with IGROV1 ovarian, 3.74 µM; in the assay with HT29 colon, 2.45 µM; in the assay on U251 CNS, 3.12 µM; in the assay on MALME-3M melanoma it was 3.02 µM; in the assay on ACHN renal it was 3.02 µM. Further, in the assay on M14 melanoma, the concentration for total growth inhibition (TGI) stood at 3.15 µM.
Regarding `CCN(CC)c1c(C(=O)/C=C/c2ccccc2)c(-c2ccccc2)nn(C)c1=O`, the total growth inhibition concentration (TGI) in the assay with IGROV1 ovarian, with HT29 colon, in the assay on EKVX NSCLC, in the assay on MALME-3M melanoma and in the assay on ACHN renal was more than 100 µM throughout.
`O=[N+]([O-])/C=C\c1ccc(Cl)c(Cl)c1`: the GI50 with OVCAR-3 ovarian is 1.96 µM; with IGROV1 ovarian, 0.602 µM; with U251 CNS it was 0.916 µM; with MOLT-4 leukemia, 1.55 µM; in the assay with EKVX NSCLC, 4.01 µM; in the assay on MALME-3M melanoma, 1.46 µM. Besides, the GI50 is 3.47 µM in the assay on ACHN renal and 1.63 µM in the assay on M14 melanoma. In addition, the TGI in the assay on OVCAR-3 ovarian amounted to 3.94 µM; with IGROV1 ovarian, 2.02 µM; with U251 CNS, 2.14 µM; in the assay on MOLT-4 leukemia it was 6.9 µM; in the assay on EKVX NSCLC, 17.5 µM; with CCRF-CEM leukemia it was 4.75 µM. For the same compound, the concentration for total growth inhibition (TGI) was found to be 6.05 µM in the assay on MALME-3M melanoma, 13.3 µM with ACHN renal and 3.29 µM in the assay on M14 melanoma.
On to `O=C(CI)NC1Oc2ccccc2-c2oc(=O)c(-c3ccccc3)cc21` (stereo not given), for which the GI50 in the assay on OVCAR-3 ovarian was 1.3 µM; in the assay with U251 CNS, 1.73 µM; with CCRF-CEM leukemia, 0.305 µM; with MALME-3M melanoma, 1.73 µM; in the assay with M14 melanoma, 1.67 µM. The TGI in the assay with OVCAR-3 ovarian was 2.71 µM; in the assay with U251 CNS, 3.22 µM; with CCRF-CEM leukemia it was more than 100 µM; in the assay with MALME-3M melanoma, 3.27 µM; with M14 melanoma, 3.2 µM.
Regarding `O=C1C=CC(=Nc2ccc3c(c2)C(Br)c2ccccc2-3)O1` (stereo not given), the TGI with OVCAR-3 ovarian, with IGROV1 ovarian, in the assay with U251 CNS, in the assay on MOLT-4 leukemia, with EKVX NSCLC and in the assay with CCRF-CEM leukemia was more than 100 µM in each case. Moreover, the total growth inhibition concentration (TGI) in the assay on MALME-3M melanoma, with ACHN renal and in the assay on M14 melanoma was more than 100 µM each time.
